Laboratory results: US6376488B1, “Benzoxazine α-1 adrenergic compounds” (Abbott Laboratories, priority 2000, dated 2002)

Legend:
[1] = molecular target: T1, α1a (rat) adrenoreceptor (Rattus norvegicus, UniProt P43140); test: [3H]-prazosin radioligand binding, cloned α1a (rat) adrenoreceptor in LTK cells; settings: cloned receptor in LTK cell membranes, [3H]prazosin 0.2 nM
T1 sequence (P43140 1-466): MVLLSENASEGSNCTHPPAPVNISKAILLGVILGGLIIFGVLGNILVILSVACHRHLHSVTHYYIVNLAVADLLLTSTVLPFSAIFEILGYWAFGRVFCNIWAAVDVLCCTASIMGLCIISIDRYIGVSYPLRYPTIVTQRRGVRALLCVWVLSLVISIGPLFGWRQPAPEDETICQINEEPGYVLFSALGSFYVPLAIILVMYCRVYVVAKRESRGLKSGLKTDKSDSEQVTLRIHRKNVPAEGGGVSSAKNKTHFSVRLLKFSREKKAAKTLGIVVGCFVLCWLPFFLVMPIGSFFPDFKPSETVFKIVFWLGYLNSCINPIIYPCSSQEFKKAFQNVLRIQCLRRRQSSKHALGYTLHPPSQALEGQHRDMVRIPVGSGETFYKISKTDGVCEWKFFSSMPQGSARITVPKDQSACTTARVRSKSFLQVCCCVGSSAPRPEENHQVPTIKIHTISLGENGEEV
Text: (§1) The cDNA clones encoding the α1, adrenoreceptors were obtained from TULCO (Triangle Universities Licensing Consortium, Research Triangle Park, N.C.) and inserted into the eukaryotic expression vector SnaB30. In this vector, expression of the adrenoreceptor gene is under the transcriptional control of an SV40 early promoter. Positive drug selection is provided by a neomycin-resistance gene. Mouse fibroblast cells (LTK) were transfected with the α1 expression plasmids and grown in Dulbecco's modified Eagle's medium (DMEM) containing 10% fetal calf serum and 30 μM G418. […] Stable single cell clones derived from the parental lines were screened in adrenoreceptor binding assays to identify clones having high adrenoreceptor density. Roller bottle cultures of the cloned lines were used to provide cell membranes for subsequent adrenoreceptor binding characterization studies. A cell line containing the SnaB30 vector expressing the human erythropoietin gene served as a negative control.
(§2) For adrenoreceptor binding assays, large scale membrane preparations were utilized in which 6 million cells were seeded into small (450 cm^2) Coming tissue culture roller bottles. DMEM (200 mL) containing 10% fetal calf serum and 300 μM G418 were added to each roller bottle. A 95% air/5% CO2 gas mixture (sterile) was injected into each roller bottle prior to sealing, and the bottles were then incubated at 37° C. on a roller rack for 5 days. Cells were refed with fresh medium after 3 days in culture.
(§3) On the fifth day of culture, growth medium was removed from cells grown in roller bottles, and the cells were washed twice with PBS (Sigma, 120 mM NaCl, 2.7 mM KCl, 10 mM Na2HPO4-NaH2PO4, pH=7.4). Cells were detached from the roller bottles by incubating for 15 minutes at 37° C. in a Tris-EDTA solution (10 mM Tris, 100 mM NaCl, 1 mM EDTA, pH=7.4). The cell suspension from each roller bottle was decanted into tared centrifuge tubes and kept on ice. An aliquot of each cell suspension was generally taken for cell counting. Cells were centrifuged at 3000×G for 5 minutes at 2-4° C., washed with PBS and recentrifuged. The supernatant was decanted, and the pellet was weighed to determine the wet weight of cells. Cells were washed a final time in 40 vol 5 mM Tris-HCl, 5 mM EDTA, pH=7.7 and centrifuged at 40,000×G for 10 minutes (“vol” indicates volume/weight, e.g., a “vol” of 40 would indicate that the one gram of cells were washed with 40 mls of buffer). Cells were homogenized in of 50 mM Tris-HCl, 5 mM EDTA (pH=7.4) (10 mL) and diluted to 40 mL/tube. Homogenates were centrifuged at 40,000×G for 10 minutes. The supernatant was decanted and the pellets rehomogenized in 50 mM Tris-HCl (pH=7.4) and centrifuged as before.
(§4) Following equilibration, bound radioligand was separated from free on GF/B filters (presoaked in 0.5% polyethyleneimine) using ither a Brandel or Packard cell harvester. Radioactivity was determined by standard liquid scintillation techniques.

[2] = molecular target: T2, α1b (Hamster) adrenoreceptor (Mesocricetus auratus, UniProt P18841); test: [3H]-prazosin radioligand binding, cloned α1b (hamster) adrenoreceptor in LTK cells; settings: cloned receptor in LTK cell membranes, [3H]prazosin 0.2 nM
T2 sequence (P18841 1-515): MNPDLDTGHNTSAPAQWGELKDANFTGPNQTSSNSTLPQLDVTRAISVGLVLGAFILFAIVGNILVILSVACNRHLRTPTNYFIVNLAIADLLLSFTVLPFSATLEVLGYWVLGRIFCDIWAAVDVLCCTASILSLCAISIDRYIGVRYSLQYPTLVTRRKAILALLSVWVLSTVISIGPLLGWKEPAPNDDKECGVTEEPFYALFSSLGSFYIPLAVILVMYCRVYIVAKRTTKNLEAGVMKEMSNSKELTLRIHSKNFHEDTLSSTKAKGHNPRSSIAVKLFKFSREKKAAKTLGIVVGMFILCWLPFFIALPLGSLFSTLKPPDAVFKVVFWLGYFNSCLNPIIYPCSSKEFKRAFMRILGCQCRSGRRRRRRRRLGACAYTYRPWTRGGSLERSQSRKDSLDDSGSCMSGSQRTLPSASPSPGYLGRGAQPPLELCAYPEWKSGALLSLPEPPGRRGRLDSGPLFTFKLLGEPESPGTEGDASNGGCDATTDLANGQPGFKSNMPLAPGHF
Text: as §1, §2, §3, §4

Ki [1] [nM]	Ki [2] [nM]	melting point [°C]	Structure (SMILES)
0.359	3.86	215 to 220	COc1cccc2c1N1CCN(CCCn3c(=O)[nH]c4c(sc5cccnc54)c3=O)CC1CO2.Cl.Cl.Cl (single isomer, unassigned; (-)) [Example 9, (−) 3-[3-(10-methoxy-1,2,4a,5-tetrahydropyrazino[2,1-c][1,4]benzoxazin-3(4H)-yl)propyl]pyrido[2′,3′:4,5]thieno[3,2-d]pyrimidine-2,4(1H, 3H)-dione trihydrochloride]
0.648	8.91	198 to 201	COc1cccc2c1N1CCN(CCCCn3c(=O)[nH]c4c(sc5ncc(Cl)nc54)c3=O)CC1CO2.Cl.Cl (single isomer, unassigned; (-)) [Example 12, (−) 3-[4-(10-methoxy-1,2,4a,5-tetrahydropyrazino[2,1-c][1,4]benzoxazin-3(4H)-yl)butyl]-8-chloropyrazino[2′,3′:4,5]thieno[3,2-d]pyrimidine-2,4(1H,3H)-dione dihydrochloride]
1.55	39.1	280 to 282	COc1cccc2c1N1CCN(CCn3c(=O)[nH]c4c(sc5ncc(Cl)nc54)c3=O)CC1CO2.Cl.Cl (single isomer, unassigned; (-)) [Example 13, (−) 3-[2-(10-methoxy-1,2,4a,5-tetrahydropyrazino[2,1-c][1,4]benzoxazin-3(4H)-yl)ethyl]-8-chloropyrazino[2′,3′:4,5]thieno[3,2-d]pyrimidine-2,4(1H,3H)-dione dihydrochloride]
